Experimental data: ChEMBL document CHEMBL1201862, “PubChem BioAssay data set” (2004)
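Cultured in 96-well plates, cells were exposed to test compound for 48 hours across five concentrations. At the GI50, growth is halved.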 Calls of active or inactive are those of the source. Rule as the data show it: active = GI50 up to about 1.1 µM and inactive = higher.

Legend:
Assay in all cases: inhibition of tumour cell growth, NCI panel, 48 h
SF-295 = system: SF-295
HCT-15 = system: HCT-15
SF-539 = system: SF-539
T47D = system: T47D
MOLT-4 = system: MOLT-4
LOX IMVI = system: LOX IMVI
U-251 = system: U-251
NCI-H23 = system: NCI-H23
SK-MEL-28 = system: SK-MEL-28
SR = system: SR
NCI/ADR-RES = system: NCI/ADR-RES
HCC 2998 = system: HCC 2998
SF-268 = system: SF-268
SNB-19 = system: SNB-19
786-0 = system: 786-0
Malme-3M = system: Malme-3M
HOP-92 = system: HOP-92
HCT-116 = system: HCT-116
HOP-62 = system: HOP-62
HT-29 = system: HT-29

Row | SMILES | GI50 (SF-295) | GI50 (HCT-15) [µM] | GI50 (SF-539) | GI50 (T47D) | GI50 (MOLT-4) | GI50 (LOX IMVI) | GI50 (U-251) | GI50 (NCI-H23) | GI50 (SK-MEL-28) | GI50 (SR) | GI50 (NCI/ADR-RES) | GI50 (HCC 2998) | GI50 (SF-268) | GI50 (SNB-19) | GI50 (786-0) | GI50 (Malme-3M) | GI50 (HOP-92) | GI50 (HCT-116) | GI50 (HOP-62) | GI50 (HT-29)
1 | Cc1ccc(C)c(COCCOCn2cc(N3CCOCC3)c(=O)[nH]c2=O)c1 | > 100 µM (inactive) | > 100 | > 100 µM (inactive) | > 100 µM (inactive) | > 100 µM (inactive) | > 100 µM (inactive) | > 100 µM (inactive) | > 100 µM (inactive) | > 100 µM (inactive) | > 100 µM (inactive) | > 100 µM (inactive) | > 100 µM (inactive) | > 100 µM (inactive) | > 100 µM (inactive) | > 100 µM (inactive) | > 100 µM (inactive) | > 100 µM (inactive) | > 100 µM (inactive) | – | –
2 | COC(=O)C(=O)C(C(=O)C(=O)Nc1nc2ccc(C)cc2s1)c1nc2ccc([N+](=O)[O-])cc2nc1O (centres undefined) | > 100 µM (inactive) | > 100 | > 100 µM (inactive) | > 100 µM (inactive) | – | > 100 µM (inactive) | > 100 µM (inactive) | > 100 µM (inactive) | > 100 µM (inactive) | > 100 µM (inactive) | > 100 µM (inactive) | > 100 µM (inactive) | > 100 µM (inactive) | 72.6 µM (inactive) | > 100 µM (inactive) | > 100 µM (inactive) | 65.2 µM (inactive) | > 100 µM (inactive) | > 100 µM (inactive) | > 100 µM (inactive)
3 | NS(=O)(=O)c1ccc(NCc2cccc3c(=O)c4ccc(Cl)cc4oc23)cc1 | 59.4 µM (inactive) | 11.5 | 14.2 µM (inactive) | 81.3 µM (inactive) | 19.7 µM (inactive) | 20.9 µM (inactive) | 23.8 µM (inactive) | 31.5 µM (inactive) | > 79.8 µM (inactive) | 4.68 µM (inactive) | 32.5 µM (inactive) | > 82.4 µM (inactive) | 19.5 µM (inactive) | 8.07 µM (inactive) | > 58.5 µM (inactive) | 12.3 µM (inactive) | 12.6 µM (inactive) | 6.17 µM (inactive) | 39.7 µM (inactive) | 31.4 µM (inactive)
4 | COc1ccc2nc3n(c2c1)C(c1c(F)cccc1F)SC3 (centres undefined) | 38.6 µM (inactive) | 43.2 | > 100 µM (inactive) | 22.3 µM (inactive) | 32.4 µM (inactive) | 47.3 µM (inactive) | 51.8 µM (inactive) | 25.9 µM (inactive) | > 100 µM (inactive) | 37.9 µM (inactive) | 19.1 µM (inactive) | 78 µM (inactive) | 29 µM (inactive) | 20.8 µM (inactive) | 39.6 µM (inactive) | – | 51.1 µM (inactive) | 25.4 µM (inactive) | 61.7 µM (inactive) | 25.7 µM (inactive)
5 | COc1cc(Br)cc2nc(-c3cccs3)oc12 | 55.7 µM (inactive) | 16.2 | 75.9 µM (inactive) | 6.15 µM (inactive) | > 100 µM (inactive) | > 100 µM (inactive) | 42.1 µM (inactive) | > 68.1 µM (inactive) | > 100 µM (inactive) | > 100 µM (inactive) | > 100 µM (inactive) | > 100 µM (inactive) | > 62.4 µM (inactive) | > 83 µM (inactive) | > 56 µM (inactive) | > 100 µM (inactive) | > 63.5 µM (inactive) | > 70.6 µM (inactive) | 24.5 µM (inactive) | > 100 µM (inactive)
6 | O=C(CCCN1CCC2(CC1)NC(=O)c1ccccc1O2)c1ccc(F)cc1 | > 100 µM (inactive) | > 100 | > 100 µM (inactive) | 84.3 µM (inactive) | 50.1 µM (inactive) | 80 µM (inactive) | > 100 µM (inactive) | > 100 µM (inactive) | > 100 µM (inactive) | 57 µM (inactive) | > 100 µM (inactive) | > 100 µM (inactive) | > 100 µM (inactive) | – | > 100 µM (inactive) | 70.6 µM (inactive) | > 100 µM (inactive) | > 100 µM (inactive) | > 100 µM (inactive) | 43.3 µM (inactive)
7 | COc1cc2c(cc1OCCCNC(=O)c1cc3ccccc3[nH]1)N=C[C@@H]1CCCN1C2=O | 0.405 µM (active) | 0.897 | 0.24 µM (active) | 0.229 µM (active) | 0.125 µM (active) | 0.421 µM (active) | 0.148 µM (active) | 0.504 µM (active) | 0.318 µM (active) | 0.19 µM (active) | 2.04 µM (inactive) | 0.664 µM (active) | 0.082 µM (active) | 0.445 µM (active) | 0.237 µM (active) | – | 7.43 µM (inactive) | 0.24 µM (active) | 0.326 µM (active) | 0.296 µM (active)
